Assay results reported in paper PMC9848270, “Synthesis and biological assessment of indole derivatives containing penta-heterocycles scaffold as novel anticancer agents towards A549 and K562 cells” (Journal of Enzyme Inhibition and Medicinal Chemistry, 2023).

Key:
[1] = test system: human non-small cell lung cancer cells (A549); experiment: MTT antiproliferative assay, A549; format: cell-based; details: for inhibition at 10 µM: A549, 10 μM, read-out: Inhibition rate, A549; for IC50: A549, 48 h, MTT assay, 48 h, read-out: In vitro cytotoxicity IC50, A549
Procedure: (§1) A549, PC-3, HepG2 and K562 cells were purchased from the Kunming cell bank of the Chinese academy of sciences. All cell lines were cultured in DMEM or RPMI 1640 complete medium. Logarithmic growth cells were cultured in 96-well plates at a concentration of 10^4 cells per well and pre-cultured for 24 h before adding test compounds. The MTT test with 5-Fluorouracil and Gefitinib as reference compounds were used to evaluate antiproliferative activity of target compounds in four human cancer line cells. For the estimation of the inhibition concentration (IC50), the Graph Pad Prism (GraphPad Software, San Diego, CA) was used.

[2] = test system: human prostate cancer cells (PC-3); experiment: MTT antiproliferative assay, PC-3; format: cell-based; details: Homo sapiens; for IC50: 48 h, MTT assay, read-out: In vitro cytotoxicity IC50, PC-3; for inhibition at 10 µM: read-out: Inhibition rate, PC-3
Procedure: as §1

[3] = test system: human liver cancer cells (HepG2); experiment: MTT antiproliferative assay, HepG2; format: cell-based; details: for inhibition at 10 µM: read-out: Inhibition rate, HepG2; for IC50: MTT assay, 48 h, read-out: In vitro cytotoxicity IC50, HepG2
Procedure: as §1

[4] = test system: human chronic myeloid leukaemia cells (K562); experiment: MTT antiproliferative assay, K562; format: cell-based; details: for inhibition at 10 µM: K562, 10 μM, read-out: Inhibition rate, K562; for IC50: K562, 48 h, MTT assay, 48 h, read-out: In vitro cytotoxicity IC50, K562
Procedure: as §1

[5] = MTT cytotoxicity, normal cell line HEK293; format: cell-based, human; details: human, HEK293 cells (normal cell line); MTT assay, 48 h; normal cell line; CC50; read-out: In vitro cytotoxicity IC50, HEK293
[6] = test system: normal cell line (HEK293); experiment: MTT cytotoxicity, normal cell line HEK293; format: cell-based, human; details: Homo sapiens, HEK293; 10 μM; read-out: Inhibition rate, HEK293

Row | SMILES | melting point | inhibition at 10 µM [1] | IC50 [1] | IC50 [2] | inhibition at 10 µM [2] | inhibition at 10 µM [3] | IC50 [3] | inhibition at 10 µM [4] | IC50 [4] | IC50 at 48 h [5] | inhibition at 10 µM [6]
1 | O=C(CSc1nnc(-c2cc(Cl)cc(Cl)c2)s1)Nc1cc(-c2c[nH]c3ccccc23)n[nH]1 [Compound 10a, N-(3-(1H-indol-3-yl)-1H-pyrazol-5-yl)-2-((5-(3,5-dichlorophenyl)-1,3,4-thiadiazol-2-yl)thio)acetamide] |  | 85.6 ± 3.54% | 0.433 ± 0.1 µM | 0.141 ± 0.01 µM | 95.7 ± 0.624% | 76 ± 3.39% | 4.45 ± 0.42 µM | 96 ± 2.31% | 0.0527 ± 0.02 µM | 1.33 ± 0.07 µM | 87.6 ± 2.19%
2 | COc1ccc(-c2nnc(SCC(=O)Nc3cc(-c4c[nH]c5ccccc45)n[nH]3)s2)cc1 [Compound 10e, N-(3-(1H-indol-3-yl)-1H-pyrazol-5-yl)-2-((5-(4-methoxyphenyl)-1,3,4-thiadiazol-2-yl)thio)acetamide] |  | 92.2 ± 1.01% | 0.834 ± 0.09 µM | 0.852 ± 0.43 µM | 92.5 ± 0.391% | 95.5 ± 0.354% | 0.801 ± 0.09 µM | 98.7 ± 1.05% | 0.193 ± 0.09 µM | 0.89 ± 2.32 µM | 85.5 ± 1.26%
3 | O=C(CSc1nnc(-c2ccc(Cl)cc2)s1)Nc1cc(-c2c[nH]c3ccccc23)n[nH]1 [Compound 10f, N-(3-(1H-indol-3-yl)-1H-pyrazol-5-yl)-2-((5-(4-chlorophenyl)-1,3,4-thiadiazol-2-yl)thio)acetamide] |  | 85.2 ± 3.63% | 4.33 ± 0.3 µM | 8.86 ± 7.04 µM | 58.7 ± 28.6% | 90.3 ± 2.77% | 3.34 ± 0.6 µM | 95.8 ± 3.98% | 0.991 ± 0.52 µM | 2.56 ± 0.9 µM | 60.9 ± 6.65%
4 | Nn1c(SCC(=O)Nc2cc(-c3c[nH]c4ccccc34)n[nH]2)nnc1-c1cc(Cl)cc(Cl)c1 [Compound 11a, N-(3-(1H-indol-3-yl)-1H-pyrazol-5-yl)-2-((4-amino-5–(3,5-dichlorophenyl)-4H-1,2,4-triazol-3-yl)thio)acetamide] | 258 to 260 °C | 32.9 ± 3.84% | 27.3 ± 3.47 µM | 7.66 ± 1.5 µM | 79 ± 3.97% | 19.3 ± 4.13% | 40.3 ± 7.83 µM | 95.6 ± 1.68% | 3.64 ± 0.08 µM | 16.8 ± 5.56 µM | 58.5 ± 2.72%

Now from value to compound, other results behind:

Row | melting point | SMILES | inhibition at 10 µM [1] | IC50 [1] | IC50 [2] | inhibition at 10 µM [2] | inhibition at 10 µM [3] | IC50 [3] | inhibition at 10 µM [4] | IC50 [4] | IC50 at 48 h [5] | inhibition at 10 µM [6]
5 | 151 to 153 °C | O=C(CSc1nnc(Cc2ccc(Cl)cc2)s1)Nc1cc(-c2c[nH]c3ccccc23)n[nH]1 [Compound 10d, N-(3-(1H-indol-3-yl)-1H-pyrazol-5-yl)-2-((5-(4-chlorobenzyl)-1,3,4-thiadiazol-2-yl)thio)acetamide] | 90.7 ± 6.19% | 1.28 ± 0.33 µM | 1.6 ± 0.44 µM | 82.6 ± 4.95% | 93.7 ± 1.88% | 0.732 ± 0.15 µM | 96.1 ± 1.29% | 0.184 ± 0.02 µM | 0.74 ± 1.25 µM | 84.7 ± 2.75%
6 | 233 to 235 °C | O=C(CSc1nnc(-c2cccnc2)s1)Nc1cc(-c2c[nH]c3ccccc23)n[nH]1 [Compound 10h, N-(3-(1H-indol-3-yl)-1H-pyrazol-5-yl)-2-((5-(pyridine-3-yl)-1,3,4-thiadiazol-2-yl)thio)acetamide] | 43.5 ± 1.7% | 7.96 ± 1.39 µM | 16.7 ± 4.86 µM | 28.9 ± 2.71% | 63.2 ± 5.32% | 5.58 ± 2.69 µM | 64.3 ± 8.28% | 6.93 ± 1.63 µM | 21.9 ± 1.31 µM | 18.7 ± 8.52%
7 | 226 to 228 °C | O=C(CSc1nnc(-c2ccccn2)s1)Nc1cc(-c2c[nH]c3ccccc23)n[nH]1 [Compound 10i, N-(3-(1H-indol-3-yl)-1H-pyrazol-5-yl)-2-((5-(pyridine-2-yl)-1,3,4-thiadiazol-2-yl)thio)acetamide] | 35.7 ± 2.75% | 12 ± 1.46 µM | 24.1 ± 5.07 µM | 30.5 ± 9.1% | 51.9 ± 5.57% | 8.37 ± 2.29 µM | 40.5 ± 6.54% | 12.5 ± 2.46 µM | 26.3 ± 1.63 µM | 46.5 ± 7.5%
